# From patent US20190262330A1, “Method of Treating Hepatocellular Carcinoma Using N-(4-(6,7-dimethoxyquinolin-4-yloxy)phenyl)-N′-(4-fluorophenyl)cyclopropane-1,1-dicarboxamide, (2S)-hydroxybutanedioate” (Exelixis, Inc., priority 2017, published 2019)
# Key:
# [1] = tested on: patients with advanced hepatocellular carcinoma; assay: Phase 3 CELESTIAL trial, safety; type: in vivo, human
# Procedure: Treatment interruptions and dose reductions (to 40 mg and then to 20 mg) were utilized to manage adverse events. Patients received study treatment as long as they experienced clinical benefit as judged by the investigator or until they experienced unacceptable toxicity.
# Secondary efficacy endpoints were progression-free survival, defined as the time from randomization to the earlier of radiographic progression or death due to any cause, and objective response rate. Tumor assessments were performed using computed tomography or magnetic resonance imaging at baseline and every 8 weeks after randomization until the later of 8 weeks after radiographic progression or treatment discontinuation. Tumor response and progression were assessed by the investigator using Response Evaluation Criteria In Solid Tumors (RECIST) version 1.1. Eisenhauer E A, Therasse P, Bogaerts J, et al. New response evaluation criteria in solid tumours: revised RECIST guideline (version 1.1). Eur J Cancer 2009; 45:228-47. Safety was continuously evaluated, and the severity of adverse events was assessed by the investigator using the National Cancer Institute Common Terminology Criteria for Adverse Events, version 4. Progression-free survival was tested by stratified log-rank test; significance level 0.04. Overall response rate was tested by 2-sided Fisher's exact test; significance level Of 0.01.
# Efficacy was analyzed in all randomized patients by the intent-to-treat principle. Safety was analyzed in all patients who received at least one dose of study treatment. For time-to-event endpoints, hypothesis testing was done using the stratified log-rank test with the stratification factors used for randomization; median durations and associated 95% confidence intervals were estimated using the Kaplan-Meier method. Hazard ratios were estimated using Cox regression models. Hypothesis testing for objective response was done with the Cochran-Mantel-Haenszel method. All subgroup analyses of overall survival and progression-free survival were prespecified except for those based on extrahepatic spread of disease or macrovascular invasion as separate factors or sorafenib as the only prior therapy. For subgroup analyses, no adjustments were made for multiplicity, hazard ratios are unstratified, and confidence intervals are considered descriptive.
# Patients on both arms who had disease progression could continue treatment at the discretion of the investigator [see Clinical Studies (14)].
# [2] = tested on: previously treated advanced HCC; assay: CELESTIAL secondary analysis: target lesion size, serum AFP, time to progression; type: in vivo, human
# Procedure: Patients must have received prior sorafenib and were allowed up to 2 lines of prior systemic therapy for HCC. Change in the sum of target lesion diameters (SOD) from baseline was determined every 8 weeks by investigator. Best percentage change in SOD was defined as the maximum reduction in SOD at any postbaseline timepoint. Serum AFP levels were measured centrally at baseline and every 8 weeks on the same schedule as tumor assessments. TTP was defined as the time from randomization to radiological progression or clinical deterioration and was determined retrospectively.
# [3] = tested on: juvenile rats; type: in vivo, rat
# Procedure: […]. Mortalities occurred at doses equal and greater than 1 mg/kg/day (approximately 0.16 times the clinical dose of 60 mg/day based on body surface area).
# [4] = target: VEGFR-3 (Homo sapiens, UniProt P35916); assay: In vitro biochemical and/or cellular kinase assays
# VEGFR-3, sequence (P35916 25-1363): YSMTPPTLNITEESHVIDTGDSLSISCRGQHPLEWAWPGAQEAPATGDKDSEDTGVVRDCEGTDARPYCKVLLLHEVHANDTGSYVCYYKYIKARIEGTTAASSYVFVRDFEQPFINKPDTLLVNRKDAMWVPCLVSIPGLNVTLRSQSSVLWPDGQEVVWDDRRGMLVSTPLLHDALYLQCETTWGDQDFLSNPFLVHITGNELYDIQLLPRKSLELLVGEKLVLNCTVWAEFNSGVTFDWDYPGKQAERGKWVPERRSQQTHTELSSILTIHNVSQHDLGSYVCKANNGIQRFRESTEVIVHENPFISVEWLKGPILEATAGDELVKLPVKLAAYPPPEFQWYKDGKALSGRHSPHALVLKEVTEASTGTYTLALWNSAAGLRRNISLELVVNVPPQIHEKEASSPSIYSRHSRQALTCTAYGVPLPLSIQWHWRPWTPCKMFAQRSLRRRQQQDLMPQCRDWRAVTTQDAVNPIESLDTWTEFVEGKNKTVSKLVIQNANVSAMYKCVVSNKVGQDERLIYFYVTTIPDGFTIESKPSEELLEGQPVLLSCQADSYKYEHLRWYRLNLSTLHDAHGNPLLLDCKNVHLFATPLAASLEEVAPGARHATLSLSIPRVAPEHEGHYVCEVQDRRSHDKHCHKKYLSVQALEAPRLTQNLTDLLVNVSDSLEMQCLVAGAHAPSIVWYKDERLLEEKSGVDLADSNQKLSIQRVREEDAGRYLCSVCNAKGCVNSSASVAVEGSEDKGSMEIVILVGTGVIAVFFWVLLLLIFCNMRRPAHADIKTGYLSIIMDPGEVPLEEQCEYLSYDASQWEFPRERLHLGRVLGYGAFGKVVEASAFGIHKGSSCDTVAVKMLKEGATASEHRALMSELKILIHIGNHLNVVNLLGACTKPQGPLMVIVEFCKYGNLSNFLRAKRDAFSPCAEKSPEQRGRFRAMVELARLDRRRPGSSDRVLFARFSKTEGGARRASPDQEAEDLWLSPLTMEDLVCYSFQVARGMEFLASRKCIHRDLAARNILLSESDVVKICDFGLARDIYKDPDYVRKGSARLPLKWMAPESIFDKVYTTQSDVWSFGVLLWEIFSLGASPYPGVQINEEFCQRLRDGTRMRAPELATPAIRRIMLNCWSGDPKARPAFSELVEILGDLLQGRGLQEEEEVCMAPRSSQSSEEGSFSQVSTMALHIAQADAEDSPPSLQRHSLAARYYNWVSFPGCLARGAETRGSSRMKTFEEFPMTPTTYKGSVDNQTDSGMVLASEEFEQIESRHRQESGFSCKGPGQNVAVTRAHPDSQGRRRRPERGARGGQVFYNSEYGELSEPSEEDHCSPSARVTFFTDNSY
# [5] = target: MER (Homo sapiens, UniProt Q12866); assay: In vitro biochemical and/or cellular kinase assays
# MER, sequence (Q12866 21-999): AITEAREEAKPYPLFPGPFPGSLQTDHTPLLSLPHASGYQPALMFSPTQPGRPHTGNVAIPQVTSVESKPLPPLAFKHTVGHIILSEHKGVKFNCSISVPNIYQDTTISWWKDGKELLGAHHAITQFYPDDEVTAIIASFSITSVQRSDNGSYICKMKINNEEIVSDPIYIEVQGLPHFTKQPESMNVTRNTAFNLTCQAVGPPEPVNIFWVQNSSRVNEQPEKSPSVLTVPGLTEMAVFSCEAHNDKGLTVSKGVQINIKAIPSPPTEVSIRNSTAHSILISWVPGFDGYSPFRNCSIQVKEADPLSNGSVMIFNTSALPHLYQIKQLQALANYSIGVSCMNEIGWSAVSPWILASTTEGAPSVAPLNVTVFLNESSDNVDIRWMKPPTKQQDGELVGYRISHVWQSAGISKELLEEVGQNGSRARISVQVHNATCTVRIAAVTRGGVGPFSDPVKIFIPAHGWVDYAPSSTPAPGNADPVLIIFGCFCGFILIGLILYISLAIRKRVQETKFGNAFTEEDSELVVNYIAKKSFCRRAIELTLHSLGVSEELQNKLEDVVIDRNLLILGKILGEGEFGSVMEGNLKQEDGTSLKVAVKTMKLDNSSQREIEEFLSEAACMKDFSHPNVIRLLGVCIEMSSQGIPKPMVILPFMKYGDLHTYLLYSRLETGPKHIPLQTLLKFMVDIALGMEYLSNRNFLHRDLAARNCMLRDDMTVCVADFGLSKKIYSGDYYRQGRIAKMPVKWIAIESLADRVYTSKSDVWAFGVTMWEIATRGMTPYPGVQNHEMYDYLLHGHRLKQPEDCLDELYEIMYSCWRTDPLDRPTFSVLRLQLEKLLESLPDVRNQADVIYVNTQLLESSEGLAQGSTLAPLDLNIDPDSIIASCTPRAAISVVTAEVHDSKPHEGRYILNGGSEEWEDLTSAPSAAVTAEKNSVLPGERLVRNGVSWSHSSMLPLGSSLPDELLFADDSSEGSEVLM
# [6] = target: KIT (Homo sapiens, UniProt P10721); assay: In vitro biochemical and/or cellular kinase assays
# [7] = target: FLT-3 (Homo sapiens, UniProt P36888); assay: In vitro biochemical and/or cellular kinase assays
# FLT-3, sequence (P36888 27-993): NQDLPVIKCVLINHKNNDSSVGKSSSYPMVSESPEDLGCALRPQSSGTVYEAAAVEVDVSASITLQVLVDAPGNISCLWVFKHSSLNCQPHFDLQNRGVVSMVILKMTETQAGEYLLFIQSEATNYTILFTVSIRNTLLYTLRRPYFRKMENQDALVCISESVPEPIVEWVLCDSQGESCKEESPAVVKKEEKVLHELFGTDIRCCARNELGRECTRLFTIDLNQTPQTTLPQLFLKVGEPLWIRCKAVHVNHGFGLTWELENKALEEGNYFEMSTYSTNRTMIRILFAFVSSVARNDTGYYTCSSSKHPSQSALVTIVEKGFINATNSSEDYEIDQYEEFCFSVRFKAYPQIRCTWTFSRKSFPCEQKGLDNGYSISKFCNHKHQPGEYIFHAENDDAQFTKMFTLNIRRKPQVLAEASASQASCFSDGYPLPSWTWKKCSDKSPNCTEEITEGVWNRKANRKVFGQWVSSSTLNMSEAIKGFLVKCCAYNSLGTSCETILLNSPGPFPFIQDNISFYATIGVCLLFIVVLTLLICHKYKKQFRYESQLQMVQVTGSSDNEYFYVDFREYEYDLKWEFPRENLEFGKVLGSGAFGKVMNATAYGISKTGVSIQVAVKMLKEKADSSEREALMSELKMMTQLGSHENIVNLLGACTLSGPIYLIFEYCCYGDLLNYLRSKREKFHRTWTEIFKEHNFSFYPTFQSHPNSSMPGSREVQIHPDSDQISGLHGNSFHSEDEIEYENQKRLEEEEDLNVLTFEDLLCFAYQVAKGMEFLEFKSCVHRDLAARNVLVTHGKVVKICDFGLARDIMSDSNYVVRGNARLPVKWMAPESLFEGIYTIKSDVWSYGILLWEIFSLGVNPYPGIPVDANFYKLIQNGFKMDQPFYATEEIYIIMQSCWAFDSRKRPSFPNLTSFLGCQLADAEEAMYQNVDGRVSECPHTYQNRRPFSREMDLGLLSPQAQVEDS
# [8] = target: TIE-2 (Homo sapiens, UniProt Q02763); assay: In vitro biochemical and/or cellular kinase assays
# [9] = Excretion of 14C-cabozantinib radioactivity in healthy subjects; type: in vivo, human; conditions: 72 hour collection
# Procedure: Approximately 81% of the total administered radioactivity was recovered within a 48-day collection period following a single 140 mg dose of an investigational ^14C-cabozantinib formulation in healthy subjects. Approximately 54% was recovered in feces and 27% in urine.
# [10] = target: T1, CYP1A2 (Homo sapiens, UniProt P05177); assay: In vitro metabolic pathways; type: in vitro ADME
# T1 sequence (P05177 whole entry): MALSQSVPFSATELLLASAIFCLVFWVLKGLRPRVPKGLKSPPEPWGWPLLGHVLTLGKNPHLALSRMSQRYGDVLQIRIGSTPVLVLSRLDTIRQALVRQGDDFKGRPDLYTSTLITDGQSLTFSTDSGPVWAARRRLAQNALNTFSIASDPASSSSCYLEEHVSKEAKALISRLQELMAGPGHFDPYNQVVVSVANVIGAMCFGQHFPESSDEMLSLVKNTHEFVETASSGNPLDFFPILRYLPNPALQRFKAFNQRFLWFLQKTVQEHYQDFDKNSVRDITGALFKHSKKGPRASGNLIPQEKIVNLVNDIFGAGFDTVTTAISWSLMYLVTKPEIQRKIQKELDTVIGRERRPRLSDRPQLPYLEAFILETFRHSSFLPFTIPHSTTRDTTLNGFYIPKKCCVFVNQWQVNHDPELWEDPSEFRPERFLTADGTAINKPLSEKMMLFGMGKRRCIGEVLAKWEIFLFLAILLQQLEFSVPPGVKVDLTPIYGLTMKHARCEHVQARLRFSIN
# [11] = target: CYP2C8 (Homo sapiens, UniProt P10632); assay: In vitro metabolic pathways; type: in vitro ADME
# CYP2C8, sequence (P10632 whole entry): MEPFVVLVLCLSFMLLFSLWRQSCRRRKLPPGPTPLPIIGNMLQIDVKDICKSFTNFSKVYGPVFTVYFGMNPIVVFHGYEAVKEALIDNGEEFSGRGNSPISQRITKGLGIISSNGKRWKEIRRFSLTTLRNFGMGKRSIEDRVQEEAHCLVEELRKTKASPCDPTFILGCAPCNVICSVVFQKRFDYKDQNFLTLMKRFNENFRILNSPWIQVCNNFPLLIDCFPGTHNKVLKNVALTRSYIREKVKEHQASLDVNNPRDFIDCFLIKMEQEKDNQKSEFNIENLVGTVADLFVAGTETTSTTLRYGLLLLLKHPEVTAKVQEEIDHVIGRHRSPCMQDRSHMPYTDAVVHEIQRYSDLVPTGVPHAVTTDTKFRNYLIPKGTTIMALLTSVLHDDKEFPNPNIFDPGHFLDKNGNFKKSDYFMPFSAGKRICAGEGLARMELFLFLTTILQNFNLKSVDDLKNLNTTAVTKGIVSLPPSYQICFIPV
# [12] = target: CYP2D6 (Homo sapiens, UniProt P10635); assay: In vitro metabolic pathways; type: in vitro ADME
# [13] = target: CYP2E1 (Homo sapiens, UniProt P05181); assay: In vitro metabolic pathways; type: in vitro ADME
# [14] = target: T1, CYP1A2; assay: In vitro CYP inhibition; type: in vitro ADME
# [15] = target: CYP2C9 (Homo sapiens, UniProt P11712); assay: In vitro CYP inhibition; type: in vitro ADME
# CYP2C9, sequence (P11712 whole entry): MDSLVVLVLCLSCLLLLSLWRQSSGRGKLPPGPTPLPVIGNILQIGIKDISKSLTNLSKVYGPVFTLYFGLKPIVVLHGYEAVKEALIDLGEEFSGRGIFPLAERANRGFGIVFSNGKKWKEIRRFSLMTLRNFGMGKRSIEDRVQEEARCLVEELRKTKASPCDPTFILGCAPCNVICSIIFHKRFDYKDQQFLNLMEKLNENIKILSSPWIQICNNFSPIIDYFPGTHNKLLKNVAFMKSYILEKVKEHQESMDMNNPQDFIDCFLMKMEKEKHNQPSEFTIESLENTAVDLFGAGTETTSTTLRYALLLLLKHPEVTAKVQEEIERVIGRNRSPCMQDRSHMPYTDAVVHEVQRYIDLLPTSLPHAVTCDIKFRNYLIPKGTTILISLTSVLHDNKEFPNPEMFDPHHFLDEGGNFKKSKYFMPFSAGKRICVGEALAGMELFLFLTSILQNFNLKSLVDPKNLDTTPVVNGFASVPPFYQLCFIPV
# [16] = tested on: CYP3A4; assay: In vitro CYP induction; type: in vitro ADME
# [17] = target: MRP2 (Homo sapiens, UniProt Q92887); assay: Drug transporter systems; type: in vitro ADME; conditions: in vitro
# [18] = tested on: Sprague-Dawley rats; assay: 2-year rat carcinogenicity study; type: in vivo
# [19] = tested on: murine models of hepatocellular carcinoma; conditions: mouse, in vivo; cited from earlier work
# [20] = tested on: female rats and offspring; assay: Pre- and postnatal study in rats; conditions: oral, gestation day 10 through postnatal day 20
structure (smiles),measurement,setting,value
COc1cc2nccc(Oc3ccc(NC(=O)C4(C(=O)Nc5ccc(F)cc5)CC4)cc3)c2cc1OC [cabozantinib],Grade 5 adverse events considered related to study treatment,[1]; CELESTIAL,6 patients
same,Grade 5 adverse events within 30 days of last dose,[1]; CELESTIAL,12%
same,Adverse events of any grade regardless of causality,"[1]; human, in vivo",99%
same,Adverse events of grade 3 or 4,"[1]; human, in vivo",68%
same,Any dose reduction,"[1]; human, in vivo",62%
same,"Diarrhea, Grade 3/4","[1]; human, in vivo",10%
same,Discontinuation due to treatment-related adverse event,"[1]; human, in vivo",16%
same,Dose reduction due to diarrhea,"[1]; human, in vivo",10%
same,Dose reduction due to fatigue,"[1]; human, in vivo",7%
same,Dose reduction due to hypertension,"[1]; human, in vivo",7%
same,Dose reduction due to increased aspartate aminotransferase,"[1]; human, in vivo",6%
same,Dose reduction due to palmar-plantar erythrodysesthesia syndrome,"[1]; human, in vivo",22%
same,"Fatigue, Grade 3/4","[1]; human, in vivo",10%
same,"Hypertension, Grade 3/4","[1]; human, in vivo",16%
same,"Increased aspartate aminotransferase, grade 3 or 4 adverse event","[1]; human, in vivo",12%
same,Median time to first dose reduction,"[1]; human, in vivo",38 days
same,"Palmar-plantar erythrodysesthesia, Grade 3/4","[1]; human, in vivo",17%
same,Serious adverse events,"[1]; human, in vivo",50%
same,Patients with any postbaseline reduction in SOD as best response,[2]; ITT,47%
same,Patients with ≥30% reduction in SOD,[2]; ITT,8%
same,Patients with ≥50% postbaseline decrease in serum AFP,[2]; ITT,23%
same,Patients with ≥30% reduction in postbaseline SOD,[2]; baseline AFP <400 ng/mL,9%
same,Patients with ≥30% reduction in postbaseline SOD,[2]; baseline AFP ≥400 ng/mL,7%
same,Median TTP,[2]; in vivo,5.4 months
same,Mortality,[3]; 2 mg/kg,high levels of mortality
same,Effects on bones,"[3]; rat, in vivo","reduced bone mineral content and density, physeal hypertrophy, and decreased cortical bone"
same,Recovery after treatment ceased,"[3]; rat, in vivo",effects on bone parameters were partially resolved but effects on the kidney and epididymis/testis persisted
same,Target organs,"[3]; rat, in vivo","kidney (nephropathy, glomerulonephritis), reproductive organs, gastrointestinal tract"
same,1 mg/kg/day as times the clinical dose of 60 mg/day based on body surface area,"[3]; rat, in vivo, 1 mg/kg/day",approximately 0.16 times
same,2 mg/kg as times the clinical dose of 60 mg based on body surface area,"[3]; rat, in vivo, 2 mg/kg",approximately 0.32 times
same,Tyrosine kinase activity of VEGFR-3,[4],inhibits
same,Tyrosine kinase activity of MER,[5],inhibits
same,Tyrosine kinase activity of KIT,[6],inhibits
same,Tyrosine kinase activity of FLT-3,[7],inhibits
same,Tyrosine kinase activity of TIE-2,[8],inhibits
same,Unchanged cabozantinib as share of total radioactivity in feces,[9],43%
same,Effect of inhibition of CYP1A2 on metabolite formation,[10],no effect
same,Effect of inhibition of CYP2C8 on metabolite formation,[11],no effect
same,Effect of inhibition of CYP2D6 on metabolite formation,[12],no effect
same,Effect of inhibition of CYP2E1 on metabolite formation,[13],no effect
same,Inhibition of CYP1A2,[14],does not inhibit
same,Effect on CYP2C9 pathway,[15],affected by cabozantinib in vitro
same,Induction of CYP3A4,[16],does not induce
same,MRP2 substrate status,[17],substrate
same,"Exposure at that dose, times the human exposure by AUC at the recommended 60 mg dose",[18]; 1 mg/kg,approximately 5 times
same,Dose with statistically significant increase in incidence of pheochromocytoma in male rats,"[18]; once daily oral, 2-year",1 mg/kg
same,Tumor growth,[19],inhibits tumor growth
same,"Doses without adverse maternal toxicity or effect on offspring survival, growth or postnatal development",[20],up to 0.3 mg/kg/day
